Laboratory results published in patent publication US11021445B2, “Carboxylic acid derivative as AT2R receptor antagonist” (SHANDONG DANHONG PHARMACEUTICAL CO., LTD., priority 2017, dated 2021).
pIC50: −log10 of the molar value. In brackets after ≈: the same amount, converted by molar mass.

What was measured:
[1] = Determination of kinetic solubility; format: physicochemical; conditions: buffer solution pH 7.4, aqueous buffer, kinetic from dmso stock, pH 7.4, 24 hours at room temperature, theoretical maximum 200 μM
Experimental: The to-be-tested compound was dissolved in DMSO to prepare a 10 mmol/L stock solution. 980 μL of dissolution medium was pipetted into a 2 mL screw-capped glass vial by using a pipette (Eppendorf Research Company). 20 μL of the stock solution of each test compound and the QC sample were added to a buffer solution corresponding to a kinetic detection solution of pH 7.4. The final concentrations of the test compound and DMSO solution were 200 μM and 2%, respectively. The cover of the medicine bottle was screwed. The theoretical maximum concentration is 200 μM. The mixture was shaken at 880 rpm for 24 hours at room temperature. The vial was centrifuged for 30 minutes at 13,000 rpm. 200 μL of the supernatant was added to a 96-well plate by using a digital pipette. The solubility of the test compound was determined by high performance liquid chromatography, and the experimental results are shown in Table 2.

hAT2 = biological target: T1, hAT2 (Homo sapiens, UniProt P50052); assay: hAT2 receptor binding assay (SPA, [125I]-Sar1-Ile8-Angiotensin II); conditions: membrane of HEK-293 cells overexpressing hAT2; 0.1 nM 125I ligand
T1 construct: expressed in transfected cells; host or cells: HEK-293
T1 sequence (P50052 1-363): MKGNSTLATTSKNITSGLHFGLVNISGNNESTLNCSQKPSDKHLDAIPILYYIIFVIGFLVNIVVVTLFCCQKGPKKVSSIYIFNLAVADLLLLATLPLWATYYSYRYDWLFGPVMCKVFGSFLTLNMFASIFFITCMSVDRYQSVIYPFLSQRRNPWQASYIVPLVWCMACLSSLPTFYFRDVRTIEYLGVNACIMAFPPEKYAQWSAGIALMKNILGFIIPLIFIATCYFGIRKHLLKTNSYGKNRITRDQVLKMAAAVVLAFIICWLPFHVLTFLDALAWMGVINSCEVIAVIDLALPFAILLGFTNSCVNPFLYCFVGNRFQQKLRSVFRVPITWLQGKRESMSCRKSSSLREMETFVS
How it was run: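 Membranes from HEK-293 cells overexpressing hAT2 were used at 1.25 μg/well with 250 μg/well SPA beads. Compounds were tested as 8-point 3-fold dilutions, with stocks diluted 250-fold into the reaction. [125I]-Sar1-Ile8-Angiotensin II was present at 0.1 nM final, incubated overnight at room temperature with shaking, then read by scintillation proximity.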

Row | Compound | solubility at 24 h [1] [µM] | pIC50 (hAT2)
1 | COc1ccc2c(c1OCc1ccccc1)C[C@@H](C(=O)O)N(C(=O)[C@@H](OC1CCCC1)c1ccccc1)C2 [Compound 37] | > 200 | 8.39
2 | COc1ccc2c(c1OCc1ccccc1)C[C@@H](C(=O)O)N(C(=O)[C@@H](OC1CC(F)(F)C1)c1ccccc1)C2 [Compound 51] | 190 (≈ 102 µg/mL) | 8.49
3 | COc1ccc2c(c1OCc1ccccc1)C[C@@H](C(=O)O)N(C(=O)[C@@H](O[C@H]1CC[C@@H](O)CC1)c1ccccc1)C2 [Compound 63] | 190 (≈ 104 µg/mL) | 7.99
4 | COc1ccc2c(c1OCc1ccccc1)C[C@@H](C(=O)O)N(C(=O)[C@@H](OC1(C)CCCC1)c1ccccc1)C2 [Compound 57] | – | 8.24

Now from value to compound:

Row | solubility at 24 h [1] [µM] | pIC50 (hAT2) | Compound
5 | 192 (≈ 97.3 µg/mL) | – | COc1ccc2c(c1OCc1ccccc1)C[C@@H](C(=O)O)N(C(=O)C(c1ccccc1)c1ccccc1)C2 [EMA-401, reference compound]
6 | 181 (≈ 94.2 µg/mL) | 7.88 | O=C(O)[C@@H]1Cc2c(ccc(Cl)c2OCc2ccccc2)CN1C(=O)[C@@H](OC1CCCC1)c1ccccc1 [Compound 107]
